The values that follow come from patent US10660338B2, “Sporocidal disinfectant or sanitising composition” (priority 2014, dated 2020).

Data set [1] in a line: Dye duration (lifetime before bleaching). The data set is classed as physicochemical. On the procedure: and wherein the colour indicator comprises a first non-mordant dye having a first colour and being bleachable after a first dye lifetime of 0.5 to 10 minutes in a test solution at 20° C. to 40° C. and pH8.0 to 8.5 containing 0.05 wt % to 0.15 wt % of the dye and 45 wt % to 55 wt % of sodium percarbonate;
a second non-mordant dye having a second colour different from the first colour and bleachable after a second dye lifetime of not less than 24 hours in the test solution; and
an optional third non-mordant dye having a third colour different from the first and second colours and bleachable after a third dye lifetime of not less than 36 hours in the test solution.

The subject of data set [2] is spores. The settings on record: background statement; cited from earlier work.
The test system of data set [3] is spores. Put plainly: Sporocidal action of peracetic acid (general statements). The data set is classed as cell-based.

In turn, `O=S(=O)(O)c1cc(S(=O)(=O)O)c2c(/N=N\c3ccc(S(=O)(=O)O)c4ccccc34)c(O)ccc2c1` [Acid Red 18] returned a DURATION in data set [1] of 30 min.

In data set [1], `Cc1ccc(Nc2ccc(O)c3c2C(=O)c2ccccc2C3=O)c(S(=O)(=O)[O-])c1.[Na+]` [Acid Violet 43] yielded a DURATION of 5 min.

`CC(=O)OO` [Peracetic acid]: the “Concentration at which sporocidal” value with spores [2] is reported as 4000 ppm. The “Concentration sufficient to provide sporicidal action” value with spores [3] is reported as “approximately 1000 ppm”.
